Measurements: ChEMBL document CHEMBL3045655, “Use of structure-based virtual screening in the investigation of novel human sialidase inhibitors” (Med Chem Res, 2010)
pIC50: −log10 of the molar value. Calls of active or inactive are those of the source. The calls are words filed in the database; no cut-off is given here.

Legend:
Sialidase-4 = target: T1, Sialidase-4 (Homo sapiens, UniProt Q8WWR8); experiment: Inhibition of Homo sapiens (human) NEU4 expressed in HEK293 cells using 4MU-NeuAc as substrate after 10 to 30 min by fluorometric analysis; assay type: cell-based
T1 sequence (Q8WWR8 whole entry): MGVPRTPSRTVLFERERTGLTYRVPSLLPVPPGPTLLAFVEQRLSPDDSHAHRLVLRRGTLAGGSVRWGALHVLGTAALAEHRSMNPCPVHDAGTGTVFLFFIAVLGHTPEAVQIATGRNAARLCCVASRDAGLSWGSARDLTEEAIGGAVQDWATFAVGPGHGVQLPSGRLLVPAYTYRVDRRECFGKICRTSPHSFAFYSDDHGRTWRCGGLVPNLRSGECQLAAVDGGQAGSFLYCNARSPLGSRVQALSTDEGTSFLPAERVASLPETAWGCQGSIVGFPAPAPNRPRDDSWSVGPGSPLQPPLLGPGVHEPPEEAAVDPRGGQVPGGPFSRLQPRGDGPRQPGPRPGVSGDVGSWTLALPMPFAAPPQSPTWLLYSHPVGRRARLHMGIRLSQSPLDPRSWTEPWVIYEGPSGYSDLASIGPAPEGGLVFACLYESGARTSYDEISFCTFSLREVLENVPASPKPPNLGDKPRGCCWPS

Sialidase-3 = target: T2, Sialidase-3 (Homo sapiens, UniProt Q9UQ49); experiment: Inhibition of Homo sapiens (human) NEU3 expressed in HEK293 cells using mixed ganglioside as substrate after 10 to 30 min by fluorometric analysis; assay type: cell-based
T2 sequence (Q9UQ49 whole entry): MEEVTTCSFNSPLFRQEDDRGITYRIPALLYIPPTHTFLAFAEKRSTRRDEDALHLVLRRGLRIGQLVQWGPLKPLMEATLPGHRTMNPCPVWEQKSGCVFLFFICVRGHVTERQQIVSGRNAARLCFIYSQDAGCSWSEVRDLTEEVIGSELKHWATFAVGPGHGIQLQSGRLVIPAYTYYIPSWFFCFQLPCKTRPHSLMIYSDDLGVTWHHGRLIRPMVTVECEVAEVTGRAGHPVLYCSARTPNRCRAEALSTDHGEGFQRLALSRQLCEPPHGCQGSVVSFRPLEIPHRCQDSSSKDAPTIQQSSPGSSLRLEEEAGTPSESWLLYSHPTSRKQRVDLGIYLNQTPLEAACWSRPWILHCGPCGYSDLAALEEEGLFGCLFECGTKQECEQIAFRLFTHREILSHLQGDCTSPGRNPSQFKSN

[1] = target: Sialidase-1 (Homo sapiens) (UniProt Q99519); experiment: Inhibition of Homo sapiens (human) NEU1 expressed in HEK293 cells using 4MU-NeuAc as substrate at 1 mM after 10 to 30 min by fluorometric analysis; assay type: cell-based
[2] = target: Sialidase-2 (Homo sapiens) (UniProt Q9Y3R4); details: HEK293, 1 mM
Sequence of Sialidase-2 (Homo sapiens) (Q9Y3R4 whole entry): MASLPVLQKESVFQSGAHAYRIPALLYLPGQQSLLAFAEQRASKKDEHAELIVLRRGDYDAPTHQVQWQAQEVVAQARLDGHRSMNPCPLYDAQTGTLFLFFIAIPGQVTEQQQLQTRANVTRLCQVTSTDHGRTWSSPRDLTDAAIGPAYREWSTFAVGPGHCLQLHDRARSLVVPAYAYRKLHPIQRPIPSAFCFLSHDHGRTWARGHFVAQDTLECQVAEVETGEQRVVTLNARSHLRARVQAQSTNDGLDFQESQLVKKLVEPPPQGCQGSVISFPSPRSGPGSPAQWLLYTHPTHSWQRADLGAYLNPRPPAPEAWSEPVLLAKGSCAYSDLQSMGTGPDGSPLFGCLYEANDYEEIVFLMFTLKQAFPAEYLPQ
Description: Inhibition of Homo sapiens (human) NEU2 expressed in HEK293 cells using 4MU-NeuAc as substrate at 1 mM after 10 to 30 min by fluorometric analysis

[3] = target: T3, Sialidase-3 (Homo sapiens) (UniProt Q9UQ49); experiment: Inhibition of Homo sapiens (human) NEU3 expressed in HEK293 cells using mixed ganglioside as substrate at 1 mM after 10 to 30 min by fluorometric analysis; assay type: cell-based
T3 sequence (whole entry): T2 sequence (Q9UQ49 whole entry)

[4] = target: T4, Sialidase-4 (Homo sapiens) (UniProt Q8WWR8); experiment: Inhibition of Homo sapiens (human) NEU4 expressed in HEK293 cells using 4MU-NeuAc as substrate at 1 mM after 10 to 30 min by fluorometric analysis
T4 sequence (whole entry): T1 sequence (Q8WWR8 whole entry)

Structure (SMILES)	pIC50 (Sialidase-4)	pIC50 (Sialidase-3)	inhibition [1]	inhibition [2] [%]	inhibition [3] [%]	inhibition [4] [%]
CC(=O)Nc1cc(F)c(C(=O)O)cc1NC(=O)c1ccc(-c2ccccc2)cc1	< 2.30	< 2.30	inactive	–	–	–
O=C(O)c1oc(C(=O)O)c(OCc2ccccc2)c1OCc1ccccc1	3.17	3.04	7%	40	56	56
CC(=O)N[C@H]1[C@H]([C@@H](O)[C@@H](O)CO)OC(C(=O)O)=C[C@@H]1O	–	4.22	–	–	–	–
